Consider 37 compounds from patent US8802664B2 (Bioproject, priority 2010, dated 2014).

Structures can show the parent of a compound that is named as a salt.

A word on the melting point: it is the temperature of the solid-liquid transition. `Cc1cccc(C(NC2CCN(C)CC2)c2nc3ccccc3[nH]2)c1` (stereo not shown) (as salt: oxalate) [Example 84, [(1H-benzimidazol-2-yl)(m-tolyl)methyl](1-methylpiperidin-4-yl)amine] displayed a melting point of 132 °C.

`Cc1ccccc1COc1cccc(C(NC2CCN(C)CC2)c2nc3ccccc3[nH]2)c1` (stereo not shown) (as salt: oxalate) [Example 129, {(1H-benzimidazol-2-yl)[3-(2-methylbenzyloxy)phenyl]methyl}(1-methylpiperidin-4-yl)amine] yielded a melting point of 121 °C.

In turn, `CN1CCC(OC(c2cccc(OCC3CCCNC3)c2)c2nc3ccccc3s2)CC1` (stereo not shown) (as salt: oxalate) [Example 378, 2-{(1-methylpiperidin-4-yloxy)[3-(piperidin-3-ylmethoxy)phenyl]methyl}benzothiazole] had a melting point of 55 °C.

`CN1CCC(OC(c2cccc(OCCCCN3CCOCC3)c2)c2nc3ccccc3s2)CC1` (stereo not shown) (as salt: oxalate) [Example 322, 2-{(1-methylpiperidin-4-yloxy)[3-(4-morpholin-4-yl-butoxy)phenyl]methyl}benzothiazole] showed a melting point of 61 °C.

Take `COc1ccc(F)c(C(OC2CCN(C)CC2)c2nc3ccccc3[nH]2)c1` (stereo not shown) (as salt: oxalate) [Example 486]: the melting point is 105 °C.

`CN1CCC(OC(c2cccc(SCCCN)c2)c2nc3ccccc3s2)CC1` (stereo not shown) (as salt: oxalate) [Example 314, 3-{3-[benzothiazol-2-yl(1-methylpiperidin-4-yloxy)methyl]phenylsulfanyl}propylamine] had a melting point of 99 °C.

In turn, `CN1CCC(OC(c2cccc(SCCCCN)c2)c2nc3ccccc3[nH]2)CC1` (stereo not shown) (as salt: oxalate) [Example 326, 4-{3-[(1H-benzimidazol-2-yl)(1-methylpiperidin-4-yloxy)methyl]phenylsulfanyl}butylamine] gave a melting point of 146 °C.

On to `CN1CCC(OC(c2cccc(N3CC(O)C3)c2)c2nc3ccccc3s2)CC1` (stereo not shown) (as salt: oxalate) [Example 403, 1-{3-[benzothiazol-2-yl(1-methylpiperidin-4-yloxy)methyl]phenyl}azetidin-3-ol], for which the melting point amounted to 117 °C.

`CN1CCC(OC(c2nc3cc(F)ccc3[nH]2)c2cc(OC(F)(F)F)ccc2F)CC1` (stereo not shown) (as salt: oxalate) [Example 509]: the melting point was 70 °C.

Compound `CN1CCC(COC(c2cccc(Br)c2)c2nc3ccccc3s2)C1` (single isomer, unassigned) (as salt: oxalate) [Example 464] registered a melting point of 68 °C.

Turning to `CN1CCC(OC(c2cccc(SCCN)c2)c2nc3ccccc3s2)CC1` (stereo not shown) (as salt: oxalate) [Example 269, 2-{3-[benzothiazol-2-yl(1-methylpiperidin-4-yloxy)methyl]phenylsulfanyl}ethylamine], the melting point was 80 °C.

With `COC(=O)c1cccc(C(OC2CCN(C)CC2)c2nc3ccccc3s2)c1` (stereo not shown) (as salt: oxalate) [Example 199, 3-[benzothiazol-2-yl(1-methylpiperidin-4-yloxy)methyl]benzoic acid methyl ester], the melting point is 93 °C.

Take `CC(=O)NC1CCN(c2cccc(C(OC3CCN(C)CC3)c3nc4ccccc4s3)c2)C1` (stereo not shown) (as salt: oxalate) [Example 408, N-(1-{3-[benzothiazol-2-yl(1-methylpiperidin-4-yloxy)methyl]phenyl}pyrrolidin-3-yl)acetamide]: the melting point came out at 111 °C.

For the compound `CN1CCC(OC(c2cccc(SCCCCCN)c2)c2nc3ccccc3s2)CC1` (stereo not shown) (as salt: oxalate) [Example 305, 5-{3-[benzothiazol-2-yl(1-methylpiperidin-4-yloxy)methyl]phenylsulfanyl}pentylamine], the melting point stood at 201 °C.

For `CN1CCC(OC(c2cccc(OCCCN3CCOCC3)c2)c2nc3ccccc3s2)CC1` (stereo not shown) (as salt: oxalate) [Example 350, 2-{(1-methylpiperidin-4-yloxy)[3-(3-morpholin-4-yl-propoxy)phenyl]methyl}benzothiazole], the melting point was 105 °C.

`CN1CCC(NC(c2cc3ccccc3o2)c2nc3ccccc3s2)CC1` (stereo not shown) (as salt: oxalate) [Example 37, [(benzofuran-2-yl)(benzothiazol-2-yl)methyl](1-methylpiperidin-4-yl)amine] registered a melting point of 125 °C.

For the compound `CN1CCC(OC(c2nc3ccccc3[nH]2)c2cc(C#CCCCCN)ccc2F)CC1` (stereo not shown) (as salt: oxalate) [Example 557, 6-{3-[(1H-benzimidazol-2-yl)(1-methylpiperidin-4-yloxy)methyl]-4-fluorophenyl}hex-5-ynylamine], the melting point was 195 °C.

Take `CN1CCC(OC(c2cccc(SCCNC(=N)N)c2)c2nc3ccccc3s2)CC1` (stereo not shown) (as salt: hydrochloride) [Example 302, N-(2-{3-[benzothiazol-2-yl(1-methylpiperidin-4-yloxy)methyl]phenylsulfanyl}ethyl)guanidine]: the melting point came to 125 °C.

Turning to `CN1CCC(OC(c2cccc(CCc3cn(C)cn3)c2)c2nc3ccccc3s2)CC1` (stereo not shown) (as salt: oxalate) [Example 306, 2-[{3-[2-(1-methyl-1H-imidazol-4-yl)ethyl]phenyl}(1-methylpiperidin-4-yloxy)methyl]benzothiazole], the melting point was 80 °C.

Regarding `CN1CCC(OC(c2ccc3ccsc3c2)c2nc3ccccc3[nH]2)CC1` (stereo not shown) (as salt: oxalate) [Example 556, 2-[benzo[b]thiophen-6-yl(1-methylpiperidin-4-yloxy)methyl]-1H-benzimidazole], the melting point is 160 °C.

`CN1CCC(OC(c2cccc(N3CCC(F)C3)c2)c2nc3ccccc3s2)CC1` (stereo not shown) (as salt: oxalate) [Example 430, 2-[[3-(3-fluoropyrrolidin-1-yl)phenyl](1-methylpiperidin-4-yloxy)methyl]benzothiazole] had a melting point of 70 °C.

With `CCOC(=O)NCCCCC#Cc1cccc(C(OC2CCN(C)CC2)c2nc3ccccc3n2C)c1` (stereo not shown) (as salt: oxalate) [Example 549, ethyl (6-{3-[(1-methyl-1H-benzimidazol-2-yl)(1-methylpiperidin-4-yloxy)methyl]phenyl}hex-5-ynyl)carbamate], the melting point turned out to be 90 °C.

`CN1CCC(OC(c2cccc(Oc3ccccc3)c2)c2nc3ccccc3s2)CC1` (stereo not shown) (as salt: oxalate) [Example 28, 2-[(1-methylpiperidin-4-yloxy)(3-phenoxy-phenyl)methyl]benzothiazole] displayed a melting point of 92 °C.

The compound `CN1CCC(OC(c2cccc(SCCN)c2)c2nc3cc(F)ccc3[nH]2)CC1` (stereo not shown) (as salt: oxalate) [Example 428, 2-{3-[(5-fluoro-1H-benzimidazol-2-yl)(1-methylpiperidin-4-yloxy)methyl]phenylsulfanyl}ethylamine] gave a melting point of 85 °C.

The compound `CN1CCC(OC(c2cccc(OCCCF)c2)c2nc3ccccc3s2)CC1` (stereo not shown) (as salt: oxalate) [Example 176, 2-[[3-(3-fluoropropoxy)phenyl](1-methylpiperidin-4-yloxy)methyl]benzothiazole] registered a melting point of 72 °C.

`CN1CCC(OC(c2cccc(N3CCC(N)C3)c2)c2nc3ccccc3s2)CC1` (stereo not shown) (as salt: oxalate) [Example 423, 1-{3-[benzothiazol-2-yl(1-methylpiperidin-4-yloxy)methyl]phenyl}pyrrolidin-3-ylamine]: the melting point is 145 °C.

The compound `CN1CCC(OC(c2cccc(OCc3cccc(F)c3)c2)c2nc3ccccc3s2)CC1` (stereo not shown) (as salt: oxalate) [Example 171, 2-[[3-(3-fluorobenzyloxy)phenyl](1-methylpiperidin-4-yloxy)methyl]benzothiazole] gave a melting point of 65 °C.

Turning to `CN1CCC(NC(c2cccc(SCc3ccccc3)c2)c2nc3ccccc3[nH]2)CC1` (stereo not shown) (as salt: oxalate) [Example 104, [(1H-benzimidazol-2-yl)(3-benzylsulfanylphenyl)methyl](1-methylpiperidin-4-yl)amine], the melting point worked out at 127 °C.

The compound `CCOCCn1c(C(OC2CCN(C)CC2)c2cccc(C#CCCCCN)c2)nc2ccccc21` (stereo not shown) (as salt: oxalate) [Example 500] registered a melting point of 103 °C.

`CN1CCC(OC(c2cccc(C#CCCCN)c2)c2nc3cc(F)ccc3[nH]2)CC1` (stereo not shown) (as salt: oxalate) [Example 438, 5-{3-[(5-fluoro-1H-benzimidazol-2-yl)(1-methylpiperidin-4-yloxy)methyl]phenyl}pent-4-ynylamine]: the melting point is 150 °C.

`CCSc1cc(C(OC2CCN(C)CC2)c2nc3ccccc3[nH]2)ccc1C` (stereo not shown) (as salt: oxalate) [Example 274, 2-[(3-ethylsulfanyl-4-methylphenyl)(1-methylpiperidin-4-yloxy)methyl]-1H-benzimidazole] showed a melting point of 142 °C.

In turn, `COc1cc(F)cc(C(NC2CCN(C)CC2)c2nc3ccccc3s2)c1` (stereo not shown) (as salt: oxalate) [Example 43, [benzothiazol-2-yl(3-fluoro-5-methoxyphenyl)methyl](1-methylpiperidin-4-yl)amine] had a melting point of 157 °C.

In the case of `CCOCCn1c(C(OC2CCN(C)CC2)c2cccc(I)c2)nc2ccccc21` (stereo not shown) (as salt: oxalate) [Example 497, 1-(2-ethoxyethyl)-2-[(3-iodophenyl)(1-methylpiperidin-4-yloxy)methyl]-1H-benzimidazole], the melting point was determined as 88 °C.

Compound `Cc1ccc(C(OC2CCN(C)CC2)c2nc3ccccc3s2)cc1` (stereo not shown) (as salt: oxalate) [Example 7, 2-[(1-methylpiperidin-4-yloxy)-p-tolylmethyl]benzothiazole] registered a melting point of 177 °C.

In turn, `CN1CCC(OC(c2cccc(OC3CCC(N)CC3)c2)c2nc3ccccc3s2)CC1` (stereo not shown) (as salt: oxalate) [Example 477] gave a melting point of 95 °C.

For the compound `CN1CCC(OC(c2cccc(OC3CNC3)c2)c2nc3ccccc3s2)CC1` (stereo not shown) (as salt: oxalate) [Example 402, 2-[[3-(azetidin-3-yloxy)phenyl](1-methylpiperidin-4-yloxy)methyl]benzothiazole], the melting point came to 81 °C.

The compound `CCOC(=O)c1cccc(C(OC2CCN(C)CC2)c2nc3ccccc3s2)c1` (stereo not shown) (as salt: oxalate) [Example 206, 3-[benzothiazol-2-yl(1-methylpiperidin-4-yloxy)methyl]benzoic acid ethyl ester] showed a melting point of 104 °C.
